Test results reported in US10507247B2, “Optical probes for matrix metalloproteinases” (The University Court of the University of Edinburgh, priority 2015, dated 2019).
Primed or numbered codes have the meaning given here. The star is where a group is joined. 5FAM = O=C1OC2(c3ccc(O)cc3Oc3cc(O)ccc32)c2ccc(C(=O)*)cc21; MethylRed = CN(C)c1ccc(/N=N/c2ccccc2C(=O)*)cc1; PEG2′ = PEG spacer unit (glycol linker)

Columns and labels:
MMP-9 = test: Enzyme assay, fold change in probe fluorescence over background with MMP-9; format: biochemical, human; conditions: FRET monomers; recombinant human catalytic domain MMP at 30 nM; ex/em 485/528 nm
Protocol: A library of probes (listed in Table 2 below) containing FAM (Carboxyfluorescein) as the fluorophore (donor) and MethylRed (MR) as the quencher (acceptor) and a variety of peptide sequences was synthesized by manual standard solid-phase Fmoc peptide chemistry (described below).
(§1) Enzyme specificity of the lead probes with exogenous enzymes was tested using a multiwell plate fluorimeter at excitation/emission 485/528 nm (Table 3). Recombinant human catalytic domain MMPs-1, -2, -3, -7, -8, -9, -10, -11, -12, -13 were used at 30 nM. Cleavage site for each sequence is indicated in italics.
(§2) The different compounds were also evaluated according to the fold change in fluorescent signal in presence of MMP-9 and MMP-13, and the results are shown in Table 7. From this comparison, the FRET dendrimers comprising SEQ ID NO.1 and SEQ ID NO.7 (AMF-106 and SVC-186) together with the 9Dendrimer comprising SEQ ID NO.7 (SVC-196) were chosen for further evaluation. These dendrimers are shown in FIG. 7, probe A (AMF-106), probe B (SVC-186) and probe C (SVC-196).
(§3) The enzyme assays were run in a 384-well format on a PCR opaque microplate (Thermo Scientific). All dilutions and reactions were prepared in MMP buffer (50 mM Tris, 10 mM CaCl2, 0.15M NaCl, 0.05% Brij-35, pH 7). Proteolytic activity was determined by calculating the fold change in fluorescence over background signal provided by the corresponding dilution of the probe and/or inhibitors with exogenous enzymes using a-multiwell plate fluorimeter (Synergy H1 Hybrid Reader, BioTek instruments Ltd) at excitation/emission 485/528 nm. Recombinant human MMPs (Catalytic domain MMP-1, -2, -3, -7, -8, -9, -10, -11, -12, -13 (Enzo Life Sciences) and Full-length MMP-2, -9, -12 and -13 (Merck/Millipore)) were used at 30 nM. Pro-MMP-13 (R & D Systems) was activated by incubating with 1 mM 4-aminophenylmercunc acetate (APMA) for 2 hrs at 37° C. Human neutrophil elastase (Elastase Product Company, used at 2.5 ug/ml), neutrophil lysate (lysed human neutrophils), and recombinant human Thrombin (Sigma-Aldrich, used at 5 U/ml), Plasmin (Sigma-Aldrich, used at 30 nM) and Factor Xa (Sigma-Aldrich, used at 0.5 μM) were used to identify the lead molecular probe sequences. For inhibition assays, enzyme and inhibitor were pre-incubated for 1 hr at 37° C. before the addition of molecular probe.

MMP-2 = test: Enzyme assay, fold change in probe fluorescence over background with MMP-2; format: biochemical; conditions: FRET monomers; recombinant human catalytic domain MMP at 30 nM; ex/em 485/528 nm
Sequence of MMP-2 (P08253 with tags, fused parts or gaps DEL222-396 limits assumed): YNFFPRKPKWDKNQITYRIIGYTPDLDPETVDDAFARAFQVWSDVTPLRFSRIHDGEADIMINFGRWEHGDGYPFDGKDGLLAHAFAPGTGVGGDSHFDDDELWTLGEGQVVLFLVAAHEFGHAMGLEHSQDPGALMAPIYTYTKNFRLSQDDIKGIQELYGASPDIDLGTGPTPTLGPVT
Protocol: as §1, §3

MMP-12 = target: T1, MMP-12 (Homo sapiens, UniProt P39900); test: Enzyme assay, fold change in probe fluorescence over background with MMP-12; format: biochemical; conditions: FRET monomers; recombinant human catalytic domain MMP at 30 nM; ex/em 485/528 nm
T1 construct: Recombinant human catalytic domain MMPs-1, -2, -3, -7, -8, -9, -10, -11, -12, -13 were used at 30 nM; purchased Enzo Life Sciences
T1 sequence (P39900 106-263 limits assumed): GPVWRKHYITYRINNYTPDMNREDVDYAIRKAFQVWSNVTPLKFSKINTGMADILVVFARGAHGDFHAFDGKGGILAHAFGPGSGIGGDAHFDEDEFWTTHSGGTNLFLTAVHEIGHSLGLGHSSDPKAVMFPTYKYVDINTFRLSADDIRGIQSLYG
Protocol: as §1, §3

Thrombin = target: T2, Thrombin (Homo sapiens, UniProt P00734); test: Enzyme assay, fold change in probe fluorescence with Thrombin; format: biochemical; conditions: recombinant human Thrombin 5 U/ml; ex/em 485/528 nm
T2 construct: purchased Sigma-Aldrich
Protocol: as §1, §3

MMP-13 = MMP-13 (Homo sapiens, UniProt P45452); test: Enzyme assay, fold change in probe fluorescence over background with MMP-13; format: biochemical; set-up: purchased Enzo Life Sciences (catalytic domain); Merck/Millipore (full-length); conditions: FRET monomers; recombinant human catalytic domain MMP at 30 nM; ex/em 485/528 nm
Protocol: as §1, §2, §3

| Substance | MMP-9 (39.0 kDa), fold change in fluorescence over background (MMP-9) | MMP-2 (20.3 kDa), fold change in fluorescence over background (MMP-2) | MMP-12 (20.3 kDa), fold change in fluorescence over background (MMP-12) | Inflammatory mediators: Thrombin, fold change in fluorescence over background (Thrombin) | MMP-13 (20.4 kDa), fold change in fluorescence over background (MMP-13) |
| --- | --- | --- | --- | --- | --- |
| FAM-PEG2-G-P-K-G-I-K-G-K(MR)-NH2 ({5FAM-PEG2′}-GPKGIKGK(MethylRed)-NH2) [SVC-26] | 4.22 | 2.10 | 1.54 | 1.37 | 9.33 |
| FAM-PEG2-G-P-K-G-L-K-G-K(MR)-NH2 [SVC-24] | 3.50 | 1.98 | 2.34 | 1.31 | 9.30 |
| FAM-PEG2-G-P-K-G-Nle-K-G-K(MR)-NH2 [SVC-27] | 4.53 | 2.70 | 1.46 | 1.48 | 11.75 |
| FAM-PEG2-P-Cha-G-M-F-G-K(MR)-NH2 [SVC-15] | 5.89 | 3.27 | 2.45 | 0.94 | 11.75 |
| FAM-PEG2-P-Cha-G-M-H-G-K(MR)-NH2 [SVC-21] | 7.53 | 4.01 | 3.05 | 0.97 | 12.93 |
| FAM-PEG2-P-Cha-G-M-K-G-K(MR)-NH2 [SVC-22] | 8.21 | 4.24 | 2.61 | 1.02 | 14.88 |
| FAM-PEG2-P-Cha-G-M-K-βA-K(MR)-NH2 [SVC-20] | 9.61 | 5.22 | 3.21 | 1.00 | 15.9 |
| FAM-PEG2-P-Cha-G-M-W-G-K(MR)-NH2 [SVC-17] | 5.07 | 2.59 | 2.59 | 1.05 | 6.5 |
| FAM-PEG2-P-Cha-G-M-Y(Me)-G-K(MR)-NH2 [SVC-18] | 4.94 | 2.54 | 2.15 | 0.97 | 10.04 |
| FAM-PEG2-P-Cha-G-M-Y-G-K(MR)-NH2 [SVC-19] | 6.90 | 4.07 | 2.87 | 1.04 | 11.26 |
| FAM-PEG2-P-F-G-I-K-βA-K(MR)-NH2 [AMF-24] | 2.29 | 1.59 | 1.65 | 0.96 | 5.05 |
| FAM-PEG2-P-F-G-L-K-βA-K(MR)-NH2 [AMF-23] | 2.50 | 1.87 | 3.03 | 0.89 | 6.41 |
